Assay results taken from patent US5610174A, “Use of α1A -selective adrenoceptor agonists for the treatment of urinary incontinence” (priority 1995, dated 1997).
Read-outs that look alike come from different tables or passages of the source.

Experiments:
[1] = biological target: T1, human histamine H1 receptor (Homo sapiens, UniProt P35367); experiment: Radioligand binding at cloned human histamine H1; details: [3H]mepyramine; for Ki: read-out: pKi H1 (converted)
T1 construct: expressed in transfected cells; host or cells: COS-7 (plasmid pcEXV-H1, ATCC 75346)
T1 sequence (P35367 whole entry): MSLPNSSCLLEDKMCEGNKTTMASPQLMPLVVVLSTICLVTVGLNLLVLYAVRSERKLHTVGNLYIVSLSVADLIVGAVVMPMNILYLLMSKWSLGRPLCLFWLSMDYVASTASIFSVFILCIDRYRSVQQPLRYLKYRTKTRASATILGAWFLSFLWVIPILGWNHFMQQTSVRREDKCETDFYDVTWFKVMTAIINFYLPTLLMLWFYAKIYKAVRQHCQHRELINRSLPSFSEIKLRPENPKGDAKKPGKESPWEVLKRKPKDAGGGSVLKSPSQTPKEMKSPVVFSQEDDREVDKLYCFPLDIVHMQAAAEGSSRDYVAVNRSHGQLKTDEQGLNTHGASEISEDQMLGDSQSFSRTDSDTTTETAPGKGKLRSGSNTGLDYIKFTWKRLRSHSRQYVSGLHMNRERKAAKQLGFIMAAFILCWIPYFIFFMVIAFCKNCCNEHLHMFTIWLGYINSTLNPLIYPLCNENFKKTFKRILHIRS
Experimental: Human Histamine H1 Receptor
The coding sequence of the human histamine H1 receptor, homologous to the bovine H1 receptor, was obtained from a human hippocampal cDNA library, and was cloned into the eukaryotic expression vector pCEXV-3. The plasmid DNA for the H1 receptor is designated pcEXV-H1, and was deposited on Nov. 6, 1992 under ATCC Accession No. 75346. This construct was transfected into COS-7 cells by the DEAE-dextran method. Cells were harvested after 72 hours and lysed by sonication in 5 mM Tris-HCl, 5 mM EDTA, pH 7.5. The cell lysates were centrifuged at 1000 rpm for 5 min at 4° C., and the supernatant was centrifuged at 30,000×g for 20 min. at 4° C. The pellet was suspended in 37.8 mM NaHPO4, 12.2 mM KH2 PO4, pH 7.5. […]. The bound radioligand was separated by filtration through GF/B filters using a cell harvester.

[2] = biological target: T2, human dopamine D2 receptor (Homo sapiens, UniProt P14416); experiment: Radioligand binding at human dopamine D2; details: [3H]spiperone; for Ki: read-out: pKi D2 (converted)
T2 construct: expressed in transfected cells; host or cells: COS-7 (plasmid pcEXV-D2, ATCC 75344)
T2 sequence (P14416 whole entry): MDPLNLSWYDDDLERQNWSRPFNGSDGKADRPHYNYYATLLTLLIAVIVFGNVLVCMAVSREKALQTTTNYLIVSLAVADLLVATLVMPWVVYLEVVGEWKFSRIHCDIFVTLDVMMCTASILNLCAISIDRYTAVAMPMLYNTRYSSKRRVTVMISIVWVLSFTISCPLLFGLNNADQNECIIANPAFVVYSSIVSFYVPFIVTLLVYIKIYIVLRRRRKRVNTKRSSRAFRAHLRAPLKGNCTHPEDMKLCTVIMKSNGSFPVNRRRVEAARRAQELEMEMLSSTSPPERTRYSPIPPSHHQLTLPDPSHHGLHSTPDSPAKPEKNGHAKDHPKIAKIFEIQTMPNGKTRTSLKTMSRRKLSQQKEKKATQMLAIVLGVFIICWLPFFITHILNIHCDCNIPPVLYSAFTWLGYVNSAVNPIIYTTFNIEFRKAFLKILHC
Experimental: Human Dopamine D2 Receptors
The affinity of compounds at the D2 receptor were determined using membrane preparations from COS-7 cells transfected with the gene encoding the human D2 receptor. The coding region for the human D2 receptor was obtained from a human striatum cDNA library, and cloned into the cloning site of PCDNA 1 eukariotic expression vector. The plasmid DNA for the D2 receptor is designated pcEXV-D2, and was deposited on Nov. 6, 1992 under ATCC Accession No. 75344. This construct was transfected into COS-7 cells by the DEAE-dextran method. Cells were harvested after 72 hours and lysed by sonication in 5mM Tris-HCl, 5 mM EDTA, pH 7.5. The cell lysates were centrifuged at 1000 rpm for 5 minutes at 4° C., and the supernatant was centrifuged at 30,000×g for 20 minutes at 4° C. The pellet was suspended in 50 mM Tris-HCl (pH 7.4) containing 1 mM EDTA, 5 mM KCl, 1.5 mM CaCl2, 4 mM MgCl2, and 0.1% ascorbic acid. The cell lysates were incubated with [3H]spiperone (2 nM), using 10 μM (+)Butaclamol to determine nonspecific binding.

human 5-HT1A receptor = biological target: T3, human 5-HT1A receptor (Homo sapiens, UniProt P08908); experiment: Radioligand binding at human 5-HT1A
T3 construct: expressed in transfected cells; host or cells: COS-7, transient (a cell line 5-HT1A-3, ATCC CRL 11889, is also named)
T3 sequence (P08908 1-422): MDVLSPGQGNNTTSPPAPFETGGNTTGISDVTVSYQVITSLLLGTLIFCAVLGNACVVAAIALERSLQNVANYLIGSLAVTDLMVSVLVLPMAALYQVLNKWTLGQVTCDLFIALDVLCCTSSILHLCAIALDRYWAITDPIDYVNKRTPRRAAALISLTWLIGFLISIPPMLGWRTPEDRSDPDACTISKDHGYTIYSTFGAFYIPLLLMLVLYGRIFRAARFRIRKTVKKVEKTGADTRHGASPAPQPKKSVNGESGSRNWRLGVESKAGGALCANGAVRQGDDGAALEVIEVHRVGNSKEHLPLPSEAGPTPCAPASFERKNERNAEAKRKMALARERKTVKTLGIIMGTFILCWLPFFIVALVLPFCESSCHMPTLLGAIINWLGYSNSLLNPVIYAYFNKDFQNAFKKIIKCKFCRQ
Experimental: The cDNA corresponding to the 5-HT1A receptor open reading frames and variable non-coding 5'- and 3'-regions, was cloned into the eukaryotic expression vector pCEXV-3. These constructs were transfected transiently into COS-7 cells by the DEAE-dextran method, and harvested after 72 hours. Radioligand binding assays were performed as described above for the 5-HT2 receptor, except that [3H]-8-OH-DPAT was used as the radioligand and nonspecific binding was determined by the addition of 10 μM mianserin.

[3] = biological target: T4, dog BN, female (α1-adrenoceptor) (Canis lupus, UniProt A0A8I3NK63); experiment: Contractile study in isolated female dog bladder neck; details: for pEC50 Bladder Neck: agonist contraction; for pEC50 Bladder Neck / sensitivity of the contraction to prazosin, bladder neck: female dog bladder neck
T4 sequence (A0A8I3NK63 1-466): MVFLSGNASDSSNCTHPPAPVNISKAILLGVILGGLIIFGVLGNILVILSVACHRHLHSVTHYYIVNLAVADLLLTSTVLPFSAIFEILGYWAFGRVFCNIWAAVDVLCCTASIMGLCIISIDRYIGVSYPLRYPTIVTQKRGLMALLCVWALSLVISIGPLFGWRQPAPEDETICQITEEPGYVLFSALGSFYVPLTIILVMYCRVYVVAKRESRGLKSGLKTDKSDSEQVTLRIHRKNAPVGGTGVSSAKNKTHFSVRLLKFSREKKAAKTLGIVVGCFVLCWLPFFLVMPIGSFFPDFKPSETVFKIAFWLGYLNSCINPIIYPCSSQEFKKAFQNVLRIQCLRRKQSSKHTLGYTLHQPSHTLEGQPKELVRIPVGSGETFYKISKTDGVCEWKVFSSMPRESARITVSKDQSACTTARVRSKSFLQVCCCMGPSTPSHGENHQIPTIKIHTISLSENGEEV
Text: In addition, similar studies were done using bladder neck tissue from female dogs. In order to identify the specific receptor subtype in each tissue, the pharmacological profile was compared to the profiles for these same drugs at the cloned human α1A, α1B, or α1C subtypes.
Tissue samples from the proximal urethra of male humans and male and female rabbits, as well as tissue samples from both the proximal urethra and bladder neck of male and female dogs were cut into transverse strips (3×10 mm) and suspended under 0.5 g tension in Krebs' physiological buffer at 37° C. To determine agonist potency (pEC50 )and antagonist affinity constants (pKB), concentration-effect curves to the non-selective agonist phenylepherine were constructed in the absence and in the presence of increasing concentrations of the antagonist. Up to four sequential curves were constructed in each tissue. Antagonists were allowed to equilibrate for 1h before each concentration-effect curve, and the drugs were completely washed out in between successive curves. In each experiment, one tissue served as a "time control", in which no antagonist was added so that changes in tissue sensitivity could be assessed as a function of time. […] In instances in which a single concentration of antagonist was used, pKB values were determined by the equation: […], where CR is defined as the ratio of the agonist EC50 in the presence of the antagonist to that in the absence of the antagonist.

| SMILES | pKi H1 [1] | pKi D2 [2] | pKi 5-HT1A (human 5-HT1A receptor; [3H]-8-OH-DPAT) | pEC50 Bladder Neck [3] | sensitivity of the contraction to prazosin, bladder neck [3] | Ki [1] | Ki [2] | Ki (human 5-HT1A receptor; [3H]-8-OH-DPAT, read-out: pKi 5-HT1A (converted)) | Ki (human 5-HT1A receptor) | pKB Dog BN Female ([3]; versus phenylephrine-induced contraction) |
| --- | --- | --- | --- | --- | --- | --- | --- | --- | --- | --- |
| CNCCc1ccc(O)c(NS(C)(=O)=O)c1 [SK&F 102652] | 4.3 | 6.7 | 5.8 | 5.7 | highly sensitive to prazosin |  |  |  |  |  |
| CS(=O)(=O)Nc1c(O)ccc2c1CCCC2C1=NCCN1 (racemic) [Compound A-61603, (±)-N-[5-(4,5-Dihydro-1H-imidazol-2-yl)-2-hydroxy-5,6,7,8-tetra-hydronaphthalen-1-yl]methanesulfonamide] |  |  |  | 6.8 | highly sensitive to prazosin | 50.1 µM | 10 µM | 3980 nM |  |  |
| COc1ccc(SC)c2c1C[C@@H]1[C@@H](C2)OCCN1C (relative stereo) [SDZ NVI-085, (±)-trans-4-Methyl-6-methoxy-9-thiomethoxy-3,4,4a, 5,10,10a-hexahydro-2H-naphtho[2,3-b][1,4]oxazine] |  |  |  |  |  | 5.01 µM | 3.16 µM |  | 79.4 nM |  |
| COc1ccccc1N1CCN(CCCNc2c(C)c(=O)n(C)c(=O)n2C)CC1 [Compound 5-MU] |  |  |  |  |  |  |  |  |  | 8.8 |
